Assay results as given in the NIST ThermoML archive (doi:10.1016/j.tca.2014.07.025).
Numbers after ± are expanded uncertainties.

Assays:
[1] = mn = molality of the nth substance listed, in mol/kg; conditions: 100 kPa, Liquid; for speed of sound: Frequency=3 MHz, Sing-around technique in a fixed-path interferometer; for mass density: Vibrating tube method
[2] = 100 kPa, Liquid; for speed of sound: Frequency=3 MHz, Sing-around technique in a fixed-path interferometer; for mass density: Vibrating tube method

CC1(C)S[C@@H]2[C@H](NC(=O)[C@H](N)c3ccc(O)cc3)C(=O)N2[C@H]1C(=O)O [amoxicillin] + O
speed of sound ([1]; 305.15 K, m1 = 0.0005): 1514.7 ± 1.3 m/s
speed of sound ([1]; 305.15 K, m1 = 0.002): 1515 ± 1.3 m/s
speed of sound ([1]; 305.15 K, m1 = 0.0035): 1514.4 ± 1.3 m/s
mass density ([1]; 305.15 K, m1 = 0.0005): 995.743 ± 0.6 kg/m3
mass density ([1]; 305.15 K, m1 = 0.002): 995.924 ± 0.6 kg/m3
mass density ([1]; 305.15 K, m1 = 0.0035): 996.115 ± 0.6 kg/m3
speed of sound ([1]; 310.15 K, m1 = 0.0005): 1524.6 ± 1.3 m/s
speed of sound ([1]; 310.15 K, m1 = 0.002): 1524.8 ± 1.3 m/s
speed of sound ([1]; 310.15 K, m1 = 0.0035): 1524.3 ± 1.3 m/s
mass density ([1]; 310.15 K, m1 = 0.0005): 994.045 ± 0.6 kg/m3
mass density ([1]; 310.15 K, m1 = 0.002): 994.23 ± 0.6 kg/m3
mass density ([1]; 310.15 K, m1 = 0.0035): 994.412 ± 0.6 kg/m3
speed of sound ([1]; 315.15 K, m1 = 0.0005): 1532.9 ± 1.3 m/s
speed of sound ([1]; 315.15 K, m1 = 0.002): 1533.2 ± 1.3 m/s
speed of sound ([1]; 315.15 K, m1 = 0.0035): 1532.5 ± 1.3 m/s
mass density ([1]; 315.15 K, m1 = 0.0005): 992.153 ± 0.6 kg/m3
mass density ([1]; 315.15 K, m1 = 0.002): 992.334 ± 0.6 kg/m3
mass density ([1]; 315.15 K, m1 = 0.0035): 992.522 ± 0.6 kg/m3

CC(C)C[C@H](NC(=O)CN)C(=O)O [glycyl-L-leucine] + O
speed of sound ([1]; 305.15 K, m1 = 0.00196): 1514 ± 1.5 m/s
speed of sound ([1]; 305.15 K, m1 = 0.00595): 1514.8 ± 1.5 m/s
speed of sound ([1]; 305.15 K, m1 = 0.00811): 1515 ± 1.5 m/s
speed of sound ([1]; 305.15 K, m1 = 0.01008): 1515.2 ± 1.5 m/s
speed of sound ([1]; 305.15 K, m1 = 0.02014): 1516.4 ± 1.5 m/s
speed of sound ([1]; 305.15 K, m1 = 0.05085): 1521.5 ± 1.5 m/s
speed of sound ([1]; 305.15 K, m1 = 0.1002): 1528.8 ± 1.5 m/s
speed of sound ([1]; 305.15 K, m1 = 0.1991): 1540.2 ± 1.5 m/s
speed of sound ([1]; 305.15 K, m1 = 0.299): 1552 ± 1.5 m/s
mass density ([1]; 305.15 K, m1 = 0.00196): 995.189 ± 0.63 kg/m3
mass density ([1]; 305.15 K, m1 = 0.00595): 995.39 ± 0.63 kg/m3
mass density ([1]; 305.15 K, m1 = 0.00811): 995.498 ± 0.63 kg/m3
mass density ([1]; 305.15 K, m1 = 0.01008): 995.597 ± 0.63 kg/m3
mass density ([1]; 305.15 K, m1 = 0.02014): 996.102 ± 0.63 kg/m3
mass density ([1]; 305.15 K, m1 = 0.05085): 997.635 ± 0.63 kg/m3
mass density ([1]; 305.15 K, m1 = 0.1002): 1000.07 ± 0.63 kg/m3
mass density ([1]; 305.15 K, m1 = 0.1991): 1004.86 ± 0.63 kg/m3
mass density ([1]; 305.15 K, m1 = 0.299): 1009.55 ± 0.63 kg/m3
speed of sound ([1]; 310.15 K, m1 = 0.00196): 1523.9 ± 1.5 m/s
speed of sound ([1]; 310.15 K, m1 = 0.00595): 1524.6 ± 1.5 m/s
speed of sound ([1]; 310.15 K, m1 = 0.00811): 1524.9 ± 1.5 m/s
speed of sound ([1]; 310.15 K, m1 = 0.01008): 1525.2 ± 1.5 m/s
speed of sound ([1]; 310.15 K, m1 = 0.02014): 1526.2 ± 1.5 m/s
speed of sound ([1]; 310.15 K, m1 = 0.05085): 1531.4 ± 1.5 m/s
speed of sound ([1]; 310.15 K, m1 = 0.1002): 1538.2 ± 1.5 m/s
speed of sound ([1]; 310.15 K, m1 = 0.1991): 1548.9 ± 1.5 m/s
speed of sound ([1]; 310.15 K, m1 = 0.299): 1560 ± 1.5 m/s
mass density ([1]; 310.15 K, m1 = 0.00196): 993.501 ± 0.63 kg/m3
mass density ([1]; 310.15 K, m1 = 0.00595): 993.701 ± 0.63 kg/m3
mass density ([1]; 310.15 K, m1 = 0.00811): 993.809 ± 0.63 kg/m3
mass density ([1]; 310.15 K, m1 = 0.01008): 993.908 ± 0.63 kg/m3
mass density ([1]; 310.15 K, m1 = 0.02014): 994.41 ± 0.63 kg/m3
mass density ([1]; 310.15 K, m1 = 0.05085): 995.935 ± 0.63 kg/m3
mass density ([1]; 310.15 K, m1 = 0.1002): 998.358 ± 0.63 kg/m3
mass density ([1]; 310.15 K, m1 = 0.1991): 1003.12 ± 0.63 kg/m3
mass density ([1]; 310.15 K, m1 = 0.299): 1007.79 ± 0.63 kg/m3
speed of sound ([1]; 315.15 K, m1 = 0.00196): 1532.4 ± 1.5 m/s
speed of sound ([1]; 315.15 K, m1 = 0.00595): 1533 ± 1.5 m/s
speed of sound ([1]; 315.15 K, m1 = 0.00811): 1533.1 ± 1.5 m/s
speed of sound ([1]; 315.15 K, m1 = 0.01008): 1533.3 ± 1.5 m/s
speed of sound ([1]; 315.15 K, m1 = 0.02014): 1534.5 ± 1.5 m/s
speed of sound ([1]; 315.15 K, m1 = 0.05085): 1539.2 ± 1.5 m/s
speed of sound ([1]; 315.15 K, m1 = 0.1002): 1545.9 ± 1.5 m/s
speed of sound ([1]; 315.15 K, m1 = 0.1991): 1555.8 ± 1.5 m/s
speed of sound ([1]; 315.15 K, m1 = 0.299): 1566.6 ± 1.5 m/s
mass density ([1]; 315.15 K, m1 = 0.00196): 991.607 ± 0.63 kg/m3
mass density ([1]; 315.15 K, m1 = 0.00595): 991.806 ± 0.63 kg/m3
mass density ([1]; 315.15 K, m1 = 0.00811): 991.913 ± 0.63 kg/m3
mass density ([1]; 315.15 K, m1 = 0.01008): 992.01 ± 0.63 kg/m3
mass density ([1]; 315.15 K, m1 = 0.02014): 992.508 ± 0.63 kg/m3
mass density ([1]; 315.15 K, m1 = 0.05085): 994.019 ± 0.63 kg/m3
mass density ([1]; 315.15 K, m1 = 0.1002): 996.42 ± 0.63 kg/m3
mass density ([1]; 315.15 K, m1 = 0.1991): 1001.14 ± 0.62 kg/m3
mass density ([1]; 315.15 K, m1 = 0.299): 1005.77 ± 0.63 kg/m3

O [water]
speed of sound ([2]; 305.15 K): 1513.5 ± 1.3 m/s
mass density ([2]; 305.15 K): 995.09 ± 0.11 kg/m3
speed of sound ([2]; 310.15 K): 1523.5 ± 1.3 m/s
mass density ([2]; 310.15 K): 993.403 ± 0.11 kg/m3
speed of sound ([2]; 315.15 K): 1532.2 ± 1.3 m/s
mass density ([2]; 315.15 K): 991.51 ± 0.11 kg/m3
